Measurements taken from ChEMBL document CHEMBL1201862, “PubChem BioAssay data set” (2004).
Activity calls are given as the source filed them.

Experiments:
Estrogen receptor = biological target: T1, Estrogen receptor (Homo sapiens, UniProt P03372); experiment: ERα coactivator recruitment enhancers – biochemical, TR-FRET, ERα LBD, dose response (AID 737)
T1 sequence (P03372 whole entry): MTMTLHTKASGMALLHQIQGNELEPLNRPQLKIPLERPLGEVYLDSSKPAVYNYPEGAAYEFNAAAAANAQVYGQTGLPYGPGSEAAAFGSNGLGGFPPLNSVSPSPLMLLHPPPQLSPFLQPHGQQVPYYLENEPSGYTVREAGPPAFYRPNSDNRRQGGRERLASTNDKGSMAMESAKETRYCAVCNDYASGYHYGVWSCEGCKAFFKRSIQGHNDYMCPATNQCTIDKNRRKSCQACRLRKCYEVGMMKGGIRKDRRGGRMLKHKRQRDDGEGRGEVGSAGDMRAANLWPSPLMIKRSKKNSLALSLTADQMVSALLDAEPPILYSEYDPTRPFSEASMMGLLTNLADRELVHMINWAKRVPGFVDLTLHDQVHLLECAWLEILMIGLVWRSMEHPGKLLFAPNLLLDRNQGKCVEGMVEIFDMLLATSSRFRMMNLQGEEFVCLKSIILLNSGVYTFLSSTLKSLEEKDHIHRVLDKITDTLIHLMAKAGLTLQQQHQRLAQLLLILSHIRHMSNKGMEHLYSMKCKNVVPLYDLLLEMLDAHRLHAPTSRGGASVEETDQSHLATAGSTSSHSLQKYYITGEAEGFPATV

NADPH oxidase 1 [1] = biological target: T2, NADPH oxidase 1 (Homo sapiens, UniProt Q9Y5S8); experiment: Late-stage luminescence-based cell-based dose response assay to identify inhibitors of NADPH oxidase 1 (NOX1): Synthesized analogs.; format: functional
T2 sequence (Q9Y5S8 whole entry): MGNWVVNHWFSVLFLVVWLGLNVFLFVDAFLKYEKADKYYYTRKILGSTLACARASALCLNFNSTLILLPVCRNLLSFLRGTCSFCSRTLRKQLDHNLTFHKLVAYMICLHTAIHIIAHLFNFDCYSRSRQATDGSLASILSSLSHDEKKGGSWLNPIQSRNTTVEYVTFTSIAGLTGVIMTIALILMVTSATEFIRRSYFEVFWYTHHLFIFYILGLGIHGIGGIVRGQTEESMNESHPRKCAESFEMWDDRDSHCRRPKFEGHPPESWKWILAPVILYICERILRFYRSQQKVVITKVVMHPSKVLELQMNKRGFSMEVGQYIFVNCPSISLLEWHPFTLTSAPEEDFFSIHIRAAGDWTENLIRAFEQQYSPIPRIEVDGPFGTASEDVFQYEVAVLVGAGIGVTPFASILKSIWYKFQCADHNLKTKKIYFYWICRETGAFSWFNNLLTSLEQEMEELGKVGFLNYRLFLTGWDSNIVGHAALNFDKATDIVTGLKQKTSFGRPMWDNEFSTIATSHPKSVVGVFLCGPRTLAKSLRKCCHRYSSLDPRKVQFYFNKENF

[2] = biological target: T3, Heat shock factor protein 1 (Mus musculus, UniProt P38532); experiment: decrease of HSF1-responsive luciferase luminescence – cell-based, NIH3T3, dose retest, confirmation (AID 2382); format: functional;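 also: NIH3T3 fibroblasts with HSF1-driven luciferase reporter stressed by proteasome inhibitor MG132; luminescence from HSF1-driven luciferase expression after 8 hours of MG132 stress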
T3 sequence (P38532 whole entry): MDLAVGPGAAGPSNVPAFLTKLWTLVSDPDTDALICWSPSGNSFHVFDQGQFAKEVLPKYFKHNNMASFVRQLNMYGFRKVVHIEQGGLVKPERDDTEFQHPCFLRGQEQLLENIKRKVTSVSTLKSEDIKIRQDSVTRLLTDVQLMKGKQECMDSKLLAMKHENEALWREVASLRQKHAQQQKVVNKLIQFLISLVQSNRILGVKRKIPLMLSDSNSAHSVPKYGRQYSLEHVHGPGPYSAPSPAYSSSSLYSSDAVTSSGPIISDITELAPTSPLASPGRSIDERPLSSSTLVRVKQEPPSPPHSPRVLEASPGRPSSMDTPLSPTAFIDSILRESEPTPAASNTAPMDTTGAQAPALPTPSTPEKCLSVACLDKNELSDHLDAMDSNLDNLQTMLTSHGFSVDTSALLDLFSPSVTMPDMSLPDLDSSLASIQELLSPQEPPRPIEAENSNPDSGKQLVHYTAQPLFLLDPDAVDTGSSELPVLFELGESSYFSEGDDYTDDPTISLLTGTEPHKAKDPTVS

NADPH oxidase 1 [3] = biological target: T2, NADPH oxidase 1; experiment: Luminescence-based cell-based dose response assay to identify inhibitors of NADPH oxidase 1 (NOX1).; format: functional
[4] = biological target: T4, Short transient receptor potential channel 4 (Mus musculus, UniProt Q9QUQ5); experiment: block of DAMGO-driven TRPC4 calcium entry – cell-based, HEK293 TRPC4/mu-opioid, Fluo-4 calcium, dose response (AID 434942); format: functional;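 also: potency of inhibitors blocking the TRPC4 calcium response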
T4 sequence (Q9QUQ5 whole entry): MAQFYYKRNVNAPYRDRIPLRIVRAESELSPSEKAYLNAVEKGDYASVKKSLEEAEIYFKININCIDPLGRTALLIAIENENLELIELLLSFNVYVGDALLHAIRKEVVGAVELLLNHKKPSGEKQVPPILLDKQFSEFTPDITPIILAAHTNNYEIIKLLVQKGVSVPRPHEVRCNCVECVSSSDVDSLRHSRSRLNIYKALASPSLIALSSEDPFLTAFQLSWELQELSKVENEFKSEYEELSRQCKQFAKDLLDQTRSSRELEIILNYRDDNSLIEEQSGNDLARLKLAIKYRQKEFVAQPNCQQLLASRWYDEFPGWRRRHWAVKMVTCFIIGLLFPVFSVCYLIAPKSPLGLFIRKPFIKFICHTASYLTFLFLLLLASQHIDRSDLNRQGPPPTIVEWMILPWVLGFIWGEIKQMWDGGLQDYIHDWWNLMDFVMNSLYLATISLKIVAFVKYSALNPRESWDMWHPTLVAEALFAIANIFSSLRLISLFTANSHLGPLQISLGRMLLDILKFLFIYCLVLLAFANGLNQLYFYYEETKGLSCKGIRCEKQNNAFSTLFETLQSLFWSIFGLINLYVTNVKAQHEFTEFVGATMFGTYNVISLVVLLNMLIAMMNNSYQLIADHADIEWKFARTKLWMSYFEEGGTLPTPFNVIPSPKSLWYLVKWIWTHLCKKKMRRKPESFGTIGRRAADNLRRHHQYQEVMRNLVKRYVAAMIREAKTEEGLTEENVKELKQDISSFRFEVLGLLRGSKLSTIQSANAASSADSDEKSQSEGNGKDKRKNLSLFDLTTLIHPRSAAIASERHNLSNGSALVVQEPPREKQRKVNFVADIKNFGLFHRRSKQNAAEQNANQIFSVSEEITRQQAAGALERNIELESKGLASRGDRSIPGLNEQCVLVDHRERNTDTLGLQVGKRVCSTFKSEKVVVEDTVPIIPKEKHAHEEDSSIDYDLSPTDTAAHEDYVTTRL

HeLa = experiment: Cytotoxicity counterscreen assay for transcriptional activators of heat shock protein 70 (Hsp70). [Related pubchem assays: 1203, 1252 ]; format: functional; details: Homo sapiens;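 also: cells exposed to compound for 16 hours before readout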
[5] = biological target: T5, Microphthalmia-associated transcription factor (Homo sapiens, UniProt O75030); experiment: reducers of TRPM1 reporter luminescence, concentration series – cell-based, SK-MEL-5, cherry-picked, set 3, MITF inhibitor project, dose response (AID 493073); format: functional;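 also: SK-MEL-5 melanoma cells with luciferase driven by the MITF target TRPM1 promoter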
T5 sequence (O75030 whole entry): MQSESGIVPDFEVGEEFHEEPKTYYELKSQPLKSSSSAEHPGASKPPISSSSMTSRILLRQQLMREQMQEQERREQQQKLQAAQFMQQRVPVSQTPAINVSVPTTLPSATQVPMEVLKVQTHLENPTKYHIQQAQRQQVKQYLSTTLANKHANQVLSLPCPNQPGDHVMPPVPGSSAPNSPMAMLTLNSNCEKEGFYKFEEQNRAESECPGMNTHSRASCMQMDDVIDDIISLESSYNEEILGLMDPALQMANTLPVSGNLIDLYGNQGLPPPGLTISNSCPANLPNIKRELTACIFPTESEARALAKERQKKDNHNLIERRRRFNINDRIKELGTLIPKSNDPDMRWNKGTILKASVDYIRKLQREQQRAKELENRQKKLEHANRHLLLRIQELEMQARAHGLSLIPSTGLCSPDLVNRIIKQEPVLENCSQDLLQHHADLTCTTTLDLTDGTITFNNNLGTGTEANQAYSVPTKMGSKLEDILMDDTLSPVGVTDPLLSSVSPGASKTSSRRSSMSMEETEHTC

HEK293 [6] = experiment: HEK293T cell viability loss, resazurin readout – resazurin fluorescence, cytotoxicity control for NF-kB activator project, SAR follow-up (AID 493251); format: functional, cell-based; details: Homo sapiens
Jurkat = experiment: SAR Analysis of small molecule inhibitors of T-cell specific antigen receptor-induced NF-kB activation in a Jurkat cell line using a luminescence assay - Set 2. [Related pubchem assays (depositor defined):AID435003, AID435012, AID465]; format: functional, cell-based; details: Homo sapiens
HEK293 [7] = experiment: SAR Analysis of small molecule inhibitors of T-cell specific antigen receptor-induced NF-kB activation in a HEK-293T cell line using a luminescence assay - Set 2. [Related pubchem assays (depositor defined):AID435003, AID435012, AID489026]; format: functional, cell-based; details: Homo sapiens
Vero [8] = experiment: Vero 76 cell viability after compound exposure – Vero 76 cells, synthesized analogs, cytotoxicity control for West Nile virus antiviral project, SAR follow-up (AID 2414); format: functional; details: Chlorocebus sabaeus
Vero [9] = experiment: Vero cell viability after compound exposure – synthesized analogs, set II, cytotoxicity control for West Nile virus antiviral project, SAR follow-up (AID 2402); format: functional; details: Chlorocebus sabaeus
[10] = A Cell Based Assay for the Identification of Probe candidate Compounds with Anti- Venezuelan Equine Encephalitis virus. [Related pubchem assays: 2409, 2419, 1621, 2238, 2405, 2024, 2065, 2402, 2414, 1635, 1650, 2244 ]; format: functional
[11] = biological target: T6, Luciferin 4-monooxygenase (Photinus pyralis, UniProt P08659); experiment: Counter Screen for Luciferase-based Assay Positives. [Related pubchem assays: 620, 618, 411 ]
Protein Rev = biological target: T7, Protein Rev (Human immunodeficiency virus type 1 group M subtype B (isolate WMJ22)(HIV-1), UniProt P05866); experiment: inhibitors of Rev protein–RRE RNA complex – biochemical, protein-RNA interaction, dose response (AID 842); parameters: species or system Human immunodeficiency virus 1
T7 sequence (P05866 whole entry): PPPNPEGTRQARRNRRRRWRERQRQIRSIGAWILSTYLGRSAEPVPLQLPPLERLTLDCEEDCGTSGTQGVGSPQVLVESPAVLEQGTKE

[12] = biological target: T6, Luciferin 4-monooxygenase; experiment: inhibition of purified Photinus pyralis luciferase – biochemical, luminescence, dose response (AID 1891)
[13] = Luminescence Cell-Based Dose Confirmation HTS to Identify Inhibitors of Platelet Dense Granule Release. [Related pubchem assays: 1663 (Primary HTS), 1678 (Summary of Project)]; format: functional
HT-1080 = experiment: HT1080 cell viability loss – fluorescence readout (AID 620); format: functional, cell-based; details: Homo sapiens
cells [14] = format: functional, cell-based
[15] = biological target: T8, Trace amine-associated receptor 1 (Homo sapiens, UniProt Q96RJ0); experiment: Fluorescence-based cell-based high throughput dose response assay to identify agonists of the human trace amine associated receptor 1 (TAAR1).; format: functional
T8 sequence (Q96RJ0 whole entry): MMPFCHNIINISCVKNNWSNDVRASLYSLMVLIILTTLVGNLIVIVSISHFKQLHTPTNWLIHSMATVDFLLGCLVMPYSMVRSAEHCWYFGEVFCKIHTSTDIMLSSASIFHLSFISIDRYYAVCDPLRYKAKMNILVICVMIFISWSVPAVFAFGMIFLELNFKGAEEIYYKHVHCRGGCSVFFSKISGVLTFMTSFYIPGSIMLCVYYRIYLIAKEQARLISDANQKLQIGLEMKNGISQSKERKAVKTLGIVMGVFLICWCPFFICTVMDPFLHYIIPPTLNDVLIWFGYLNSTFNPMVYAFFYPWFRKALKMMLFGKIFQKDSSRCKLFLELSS

[16] = biological target: T8, Trace amine-associated receptor 1; experiment: Counterscreen for agonists of the human trace amine associated receptor 1 (hTAAR1): Fluorescence-based cell-based high throughput dose response assay to identify hTAAR1 agonist that also desensitize TAAR1 receptor response.; format: functional
cells [17] = format: functional, cell-based; remark: listed apart in the source
[18] = biological target: T9, Oxysterols receptor LXR-beta (Homo sapiens, UniProt P55055); format: functional, cell-based;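 also: agonist activity at LXR measured by a cell-based luminescence readout across a dose range, run as a counterscreen for daf-12 agonists; HEK293 cells with Gal4-LXR fusion and GAL4-driven luciferase reporter; potency for activation of Gal4-LXR reporter so compounds are agonists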
T9 sequence (P55055 whole entry): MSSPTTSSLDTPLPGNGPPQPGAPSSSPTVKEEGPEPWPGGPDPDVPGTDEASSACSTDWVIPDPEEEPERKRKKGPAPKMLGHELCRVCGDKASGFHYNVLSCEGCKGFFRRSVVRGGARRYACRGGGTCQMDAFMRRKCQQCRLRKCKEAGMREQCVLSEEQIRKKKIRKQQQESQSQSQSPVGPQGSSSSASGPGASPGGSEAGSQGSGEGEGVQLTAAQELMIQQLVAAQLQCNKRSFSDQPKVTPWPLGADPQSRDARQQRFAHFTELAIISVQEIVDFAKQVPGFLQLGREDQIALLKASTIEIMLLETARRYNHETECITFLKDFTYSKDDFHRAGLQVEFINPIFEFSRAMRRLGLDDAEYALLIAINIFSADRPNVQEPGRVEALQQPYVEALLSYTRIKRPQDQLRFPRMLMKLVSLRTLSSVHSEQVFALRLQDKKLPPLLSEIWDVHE

T6 sequence (P08659 whole entry): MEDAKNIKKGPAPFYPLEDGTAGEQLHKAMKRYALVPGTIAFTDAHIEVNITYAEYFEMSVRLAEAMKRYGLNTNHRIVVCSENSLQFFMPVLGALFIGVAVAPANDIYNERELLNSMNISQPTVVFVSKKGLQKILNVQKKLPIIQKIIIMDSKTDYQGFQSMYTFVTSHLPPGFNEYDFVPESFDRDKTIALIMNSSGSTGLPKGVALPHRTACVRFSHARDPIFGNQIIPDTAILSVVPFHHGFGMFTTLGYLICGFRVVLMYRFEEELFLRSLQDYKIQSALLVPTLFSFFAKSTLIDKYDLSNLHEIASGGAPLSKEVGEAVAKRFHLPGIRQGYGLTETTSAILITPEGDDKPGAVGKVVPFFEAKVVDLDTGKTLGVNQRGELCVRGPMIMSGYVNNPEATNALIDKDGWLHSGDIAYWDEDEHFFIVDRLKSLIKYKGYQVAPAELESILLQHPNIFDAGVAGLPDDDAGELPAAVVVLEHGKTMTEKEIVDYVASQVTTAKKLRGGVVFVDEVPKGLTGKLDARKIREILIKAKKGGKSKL

SMILES: O=C(c1cc2sccc2n1Cc1ccccc1)N1CCc2ccccc21
- EC50 (Estrogen receptor): 23.4 µM (active)

SMILES: CC(=O)c1ccc2c(c1)N(C)c1ccccc1S2
- IC50 (NADPH oxidase 1 [1]): 2.36 µM (active)
- EC50 [2]: > 195 µM (not active)
- IC50 (NADPH oxidase 1 [3]): 1 µM (active)
- EC50 [4]: 7.5 µM (active)

SMILES: O=C(Nc1ccc(N2CCCC2)c(Cl)c1)c1ccc([N+](=O)[O-])o1
- CC50 (HeLa): 5.12 µM (active)
- AC50 [5]: 11.1 µM (active)
- IC50 (HEK293 [6]): 42 µM (inactive)
- IC50 (Jurkat): 17.8 µM (active)
- IC50 (HEK293 [7]): 33.9 µM (inactive)

SMILES: C=CCN(C(=O)c1ccccc1Cl)c1nc(-c2ccc(OC)cc2)cs1
- CC50 (Vero [8]): 24 µM (active)
- CC50 (Vero [9]): 11.1 µM (active)
- IC50 [10]: 50.1 µM (active)

SMILES: Nc1nc(Nc2ccc(Cl)cc2)nc2ccccc12
- EC50 [11]: 1.8 µM (active)
- IC50 (Protein Rev): > 79.4 µM (not active)
- EC50 [12]: 0.347 µM (active)
- EC50 [13]: 2.37 µM (active)
- EC50 (HT-1080): > 50 µM (not active)
- IC50 (cells [14]): > 29.9 µM (inactive)
- EC50 [15]: 19.2 µM (inactive)
- IC50 [16]: 9.98 µM (active)
- EC50 (cells [17]): > 29.9 µM (inactive)
- EC50 [18]: > 67.5 µM (inactive)
